Reference: patent US20120269793A1, “PHYTOESTROGENIC FORMULATIONS FOR ALLEVIATION OR PREVENTION OF HAIR LOSS” (University of Southern California, priority 2010, published 2012)
One block for each molecule: values may come before it.

What was measured:
ERα [1] = biological target: T1, ERα (Homo sapiens, UniProt P03372); test: fluorescent polarization competitive binding assay, ERα; parameters: purchased PanVera Corp; host or cells: baculovirus expression; details: for IC50: class symbol NC
T1 sequence (P03372 1-595): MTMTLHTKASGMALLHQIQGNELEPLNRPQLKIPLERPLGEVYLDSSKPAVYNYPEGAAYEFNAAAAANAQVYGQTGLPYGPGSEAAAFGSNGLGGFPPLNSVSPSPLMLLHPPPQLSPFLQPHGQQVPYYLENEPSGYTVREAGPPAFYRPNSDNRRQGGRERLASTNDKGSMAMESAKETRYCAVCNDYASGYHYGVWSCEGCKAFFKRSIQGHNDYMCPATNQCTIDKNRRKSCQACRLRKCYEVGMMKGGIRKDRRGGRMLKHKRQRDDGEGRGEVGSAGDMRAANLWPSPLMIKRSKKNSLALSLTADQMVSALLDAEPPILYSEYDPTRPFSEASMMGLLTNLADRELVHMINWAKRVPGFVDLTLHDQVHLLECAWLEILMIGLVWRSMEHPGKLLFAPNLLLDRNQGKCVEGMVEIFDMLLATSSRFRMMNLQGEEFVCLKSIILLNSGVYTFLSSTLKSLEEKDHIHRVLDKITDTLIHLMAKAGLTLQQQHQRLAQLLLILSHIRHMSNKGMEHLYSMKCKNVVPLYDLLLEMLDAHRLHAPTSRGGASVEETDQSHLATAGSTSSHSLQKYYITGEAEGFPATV

ERβ [2] = biological target: T2, ERβ (Homo sapiens, UniProt Q92731); test: fluorescent polarization competitive binding assay, ERβ; parameters: purchased PanVera Corp; host or cells: baculovirus expression; details: for IC50: class symbol NC
Target sequence in this assay (Q92731 whole entry): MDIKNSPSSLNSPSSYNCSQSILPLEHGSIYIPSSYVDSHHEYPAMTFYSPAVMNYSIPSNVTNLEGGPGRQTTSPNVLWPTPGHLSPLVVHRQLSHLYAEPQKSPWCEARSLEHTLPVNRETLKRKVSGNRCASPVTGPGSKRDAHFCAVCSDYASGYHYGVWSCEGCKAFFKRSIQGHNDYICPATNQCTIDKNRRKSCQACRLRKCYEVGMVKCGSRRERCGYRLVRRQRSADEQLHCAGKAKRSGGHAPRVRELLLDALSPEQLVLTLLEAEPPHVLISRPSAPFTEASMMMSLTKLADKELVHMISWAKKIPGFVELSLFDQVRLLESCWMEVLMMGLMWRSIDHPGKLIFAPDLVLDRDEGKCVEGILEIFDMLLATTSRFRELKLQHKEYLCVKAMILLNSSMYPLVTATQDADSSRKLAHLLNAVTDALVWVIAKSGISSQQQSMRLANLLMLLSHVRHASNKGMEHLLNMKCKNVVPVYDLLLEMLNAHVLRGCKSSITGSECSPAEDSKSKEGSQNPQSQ

ERα [3] = biological target: T1, ERα; details: cited from earlier work
ERβ [4] = biological target: T2, ERβ; details: cited from earlier work
Target sequence in this assay (Q92731 whole entry, species assumed): as the sequence (Q92731 whole entry) above

Structure (SMILES): O=c1nc2n(c3cc4ccccc4cc13)Cc1ccccc1-2 [Compd 12]
- binding to ERβ / the receptor (in words) (ERβ [2]): either very weak or no binding

Structure (SMILES): Oc1ccc([C@@H]2COc3cc(O)ccc3C2)cc1 [R-equol]
- relative binding affinity for ERα compared to 17β-estradiol (ERα [3]): 210.6 fold less
- binding to ERβ, R-equol enantiomer, fold less (ERβ [4]): approximately 100 fold less

Structure (SMILES): Oc1ccc([C@H]2COc3cc(O)ccc3C2)cc1 [S-equol]
- binding affinity for ERα compared to ERβ (ERα [3]): 10 fold less
- relative binding affinity for ERα compared to 17β-estradiol (ERα [3]): 49.2 fold less
- Kd (ERβ [4]): 0.0007 µM
- binding to ERβ relative to 17β-estradiol (ERβ [4]): approximately 20%

Structure (SMILES): CC(=O)[C@H]1CC[C@H]2[C@@H]3CCC4=CC(=O)CC[C@]4(C)[C@H]3CC[C@]12C [progesterone, reference compound]
- binding to ERα (in words) (ERα [1]): does not bind
- binding to ERβ / the receptor (in words) (ERβ [2]): does not bind

Other lines, results leading:

- IC50 (ERα [1]): > 1000 µM
Structure (SMILES): Oc1ccc(C2COc3cc(O)ccc3C2)cc1 (stereo not shown) [Compd 2]

- IC50 (ERα [1]): > 1000 µM
- binding to ERβ / the receptor (in words) (ERβ [2]): either very weak or no binding
- IC50 (ERβ [2]): > 1000 µM
Structure (SMILES): Cc1oc2cc(O)ccc2c(=O)c1-c1cc2ccccc2o1 [Compd 4]

- IC50 (ERα [1]): > 1000 µM
- binding to ERβ / the receptor (in words) (ERβ [2]): either very weak or no binding
- IC50 (ERβ [2]): > 1000 µM
Structure (SMILES): O=c1oc2cc(OCc3cccc(O)c3)ccc2c2c1CCC2 [Compd 10]
